Measurements taken from PubChem BioAssay AID192 (DTP/NCI, 2004).
Several values for one entry are separate records, joined by “and”; a condition that tells them apart may be missing. Equal entries are not always repeated. Toxic doses and inconclusive results are not listed. How the source made its calls: active means survival T/C of 150% or more; inactive means T/C below 125% in these data.

System: BDF1 mice, B16 melanoma ip, median survival T/C
Assay: NCI In Vivo Anticancer Drug Screen. Data for tumor model B16 Melanoma (intraperitoneal) in B6D2F1 (BDF1) mice
Details: endpoint: median survival time, higher = longer survival
In short: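 Antitumor activity is assessed in mice bearing a transplanted tumor, with survival or tumor size compared against vehicle-dosed controls and expressed as T/C.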

[1] = dose: 100.0 mg/kg/injection, schedule: Q01DX009 (ip), vehicle: saline with Tween-80
[2] = dose: 200.0 mg/kg/injection, schedule: Q01DX009 (ip), vehicle: saline with Tween-80
[3] = dose: 400.0 mg/kg/injection, schedule: Q01DX009 (ip), vehicle: saline with Tween-80
[4] = dose: 0.78 mg/kg/injection, schedule: Q01DX009 (ip), vehicle: Klucel (hydroxypropylcellulose) (HPC)
[5] = dose: 1.56 mg/kg/injection, schedule: Q01DX009 (ip), vehicle: Klucel (hydroxypropylcellulose) (HPC)
[6] = dose: 3.12 mg/kg/injection, schedule: Q01DX009 (ip), vehicle: Klucel (hydroxypropylcellulose) (HPC)
[7] = dose: 6.25 mg/kg/injection, schedule: Q01DX009 (ip), vehicle: Klucel (hydroxypropylcellulose) (HPC)
[8] = dose: 12.5 mg/kg/injection, schedule: Q01DX009 (ip), vehicle: Klucel (hydroxypropylcellulose) (HPC)
[9] = dose: 25.0 mg/kg/injection, schedule: Q01DX009 (ip), vehicle: saline with Tween-80
[10] = dose: 50.0 mg/kg/injection, schedule: Q01DX009 (ip), vehicle: saline with Tween-80
[11] = dose: 50.0 mg/kg/injection, schedule: Q01DX009 (ip), vehicle: Klucel (hydroxypropylcellulose) (HPC)
[12] = dose: 100.0 mg/kg/injection, schedule: Q04DX003 (ip), vehicle: saline
[13] = dose: 200.0 mg/kg/injection, schedule: Q04DX003 (ip), vehicle: saline
[14] = dose: 6.25 mg/kg/injection, schedule: Q01DX009 (ip), vehicle: saline
[15] = dose: 12.5 mg/kg/injection, schedule: Q01DX009 (ip), vehicle: saline
[16] = dose: 25.0 mg/kg/injection, schedule: Q01DX009 (ip), vehicle: saline
[17] = dose: 75.0 mg/kg/injection, schedule: Q01DX009 (ip), vehicle: Klucel (hydroxypropylcellulose) (HPC)
[18] = dose: 150.0 mg/kg/injection, schedule: Q01DX009 (ip), vehicle: Klucel (hydroxypropylcellulose) (HPC)
[19] = dose: 100.0 mg/kg/injection, schedule: Q01DX009 (ip), vehicle: Klucel (hydroxypropylcellulose) (HPC)
[20] = dose: 200.0 mg/kg/injection, schedule: Q01DX009 (ip), vehicle: Klucel (hydroxypropylcellulose) (HPC)
[21] = dose: 50.0 mg/kg/injection, schedule: Q01DX009 (ip), vehicle: saline
[22] = dose: 100.0 mg/kg/injection, schedule: Q01DX009 (ip), vehicle: saline

Measured: T/C

CCc1cc(C)cc(OC(=O)Nc2ccc(Cl)cc2)c1
inactive: [1] 116 % of control | [2] 87 % of control | [3] 92 % of control

CCCC(=O)OCC1OC(n2cnc3c(=S)nc(N)[nH]c32)C(OC(=O)CCC)C1OC(=O)CCC (stereo not drawn)
inactive: [4] 106 % of control | [5] 112 % of control | [6] 113 % of control | [7] 103 % of control and 106 % of control | [8] 87 % of control

CN(C)CCOc1ccc2c(c1)C/C(=C/c1ncc([N+](=O)[O-])n1C)C2=O
inactive: dose: 6.25 mg/kg/injection, schedule: Q01DX009 (ip), vehicle: saline with Tween-80 109 % of control | dose: 12.5 mg/kg/injection, schedule: Q01DX009 (ip), vehicle: saline with Tween-80 100 % of control | [9] 96 % of control | [10] 99 % of control | [1] 109 % of control

Cn1c(=O)c2[nH]c(Cc3ccsc3)nc2n(C)c1=O
inactive: [8] 104 % of control | dose: 25.0 mg/kg/injection, schedule: Q01DX009 (ip), vehicle: Klucel (hydroxypropylcellulose) (HPC) 107 % of control | [11] 96 % of control

CC1=Nc2ccc([N+](=O)[O-])cc2N=C(C)C1
inactive: dose: 37.5 mg/kg/injection, schedule: Q01DX009 (ip), vehicle: saline 97 % of control | dose: 75.0 mg/kg/injection, schedule: Q01DX009 (ip), vehicle: saline 101 % of control | dose: 150.0 mg/kg/injection, schedule: Q01DX009 (ip), vehicle: saline 89 % of control

COC(=O)C(C)CN1CCCCCC1 (stereo not drawn)
inactive: dose: 50.0 mg/kg/injection, schedule: Q04DX003 (ip), vehicle: saline 108 % of control | [12] 102 % of control | [13] 100 % of control

Cc1ccc(Oc2ccc3cc[n+](C)cc3c2)cc1
inactive: [14] 98 % of control | [15] 100 % of control | [16] 86 % of control

COc1ccc(/C=C/c2cnc3ccccc3n2)cc1OC
inactive: [17] 100 % of control | [18] 100 % of control | dose: 300.0 mg/kg/injection, schedule: Q01DX009 (ip), vehicle: Klucel (hydroxypropylcellulose) (HPC) 92 % of control

CCOC(=O)C1CN(S(=O)(=O)c2ccc(C)cc2)c2ccccc2C(=O)C1/C(=C/C(=O)OC)C(=O)OC (stereo not drawn)
inactive: dose: 100.0 mg/kg/injection, schedule: Q04DX003 (ip), vehicle: Klucel (hydroxypropylcellulose) (HPC) 92 % of control | dose: 200.0 mg/kg/injection, schedule: Q04DX003 (ip), vehicle: Klucel (hydroxypropylcellulose) (HPC) 90 % of control | dose: 400.0 mg/kg/injection, schedule: Q04DX003 (ip), vehicle: Klucel (hydroxypropylcellulose) (HPC) 88 % of control

CC(C)CC(Br)C(=O)NC(CC(C)C)C(=O)O (stereo not drawn)
inactive: [9] 95 % of control | [10] 100 % of control | [1] 95 % of control and 100 % of control | [3] 108 % of control

Cc1sc2ccc(Cl)cc2[n+]1CCC(=O)O
inactive: dose: 100.0 mg/kg/injection, schedule: Q04DX003 (ip), vehicle: saline with Tween-80 105 % of control | dose: 200.0 mg/kg/injection, schedule: Q04DX003 (ip), vehicle: saline with Tween-80 107 % of control | dose: 400.0 mg/kg/injection, schedule: Q04DX003 (ip), vehicle: saline with Tween-80 105 % of control

CCC(N)Cc1ccc(OC)c(OC)c1 (stereo not drawn)
inactive: [11] 97 % of control | [19] 102 % of control | [20] 105 % of control

O=C(CCl)Oc1cccc([N+](=O)[O-])c1
inactive: [9] 107 % of control | [10] 102 % of control | [1] 101 % of control

CCN(CC)C(C)CN1c2ccccc2Sc2ccccc21 (stereo not drawn)
inactive: [14] 95 % of control | [15] 105 % of control | [16] 105 % of control | [21] 112 % of control | [22] 112 % of control

O[C@H](c1cc(C(F)(F)F)nc2c(C(F)(F)F)cccc12)[C@@H]1CCCCN1
inactive: [4] 97 % of control | [5] 104 % of control | [6] 113 % of control | dose: 4.5 mg/kg/injection, schedule: Q04DX003 (ip), vehicle: Klucel (hydroxypropylcellulose) (HPC) 113 % of control | [7] 90 % of control | dose: 9.0 mg/kg/injection, schedule: Q04DX003 (ip), vehicle: Klucel (hydroxypropylcellulose) (HPC) 100 % of control

O=C(O)C(=O)O
inactive: [14] 101 % of control | [15] 105 % of control | [16] 96 % of control and 108 % of control | [21] 95 % of control

O=S(=O)(O)c1ccc2c(O)cc(S(=O)(=O)O)cc2c1
inactive: [12] 100 % of control | [13] 105 % of control | dose: 400.0 mg/kg/injection, schedule: Q04DX003 (ip), vehicle: saline 108 % of control

CCCCCCC(=O)CC(SCC)c1ccccc1Cl (stereo not drawn)
inactive: [9] 107 % of control | [10] 107 % of control | [1] 107 % of control | [2] 100 % of control | [3] 91 % of control

CCCCCCN(CCCCCC)CC(O)c1ccc2c3c(cccc13)CC2 (stereo not drawn)
inactive: [11] 105 % of control | [19] 98 % of control | [20] 101 % of control

CCC(=O)Nc1cccc(Cl)c1
inactive: dose: 75.0 mg/kg/injection, schedule: Q04DX003 (ip), vehicle: saline with Tween-80 110 % of control | dose: 150.0 mg/kg/injection, schedule: Q04DX003 (ip), vehicle: saline with Tween-80 97 % of control | dose: 300.0 mg/kg/injection, schedule: Q04DX003 (ip), vehicle: saline with Tween-80 100 % of control

CC1OC(OC2CC(O)(C(=O)CO)Cc3c(O)c4c(c(O)c32)C(=O)c2ccccc2C4=O)CC(N)C1O (stereo not drawn)
inactive: dose: 0.1 mg/kg/injection, schedule: Q01DX001 (ip), vehicle: water 102 % of control | dose: 130.0 micrograms/kg/injection, schedule: Q01DX004 (ip), vehicle: other 121 % of control | dose: 600.0 micrograms/kg/injection, schedule: Q01DX004 (ip), vehicle: other 114 % of control
active: dose: 216.0 micrograms/kg/injection, schedule: Q04DX003 (ip), vehicle: water 182 % of control | dose: 600.0 micrograms/kg/injection, schedule: Q04DX003 (ip), vehicle: water 150 % of control and 283 % of control | dose: 1000.0 micrograms/kg/injection, schedule: Q04DX003 (ip), vehicle: water 154 % of control and 211 % of control

CCN1CC(CCN2CCOCC2)C(c2ccccc2)(c2ccccc2)C1=O (stereo not drawn)
inactive: [14] 91 % of control | [15] 104 % of control | [16] 100 % of control | [21] 102 % of control | [22] 100 % of control

[Cl][Pd]([Cl])([Cl])[Cl]
inactive: [14] 103 % of control | [15] 92 % of control

O=C(OCCOCCN1CCCCC1)N1c2ccccc2Sc2cccnc21
inactive: dose: 3.12 mg/kg/injection, schedule: Q01DX009 (ip), vehicle: saline 100 % of control | [15] 100 % of control | [16] 102 % of control

O=[N+]([O-])OCc1c(Cl)nc(Cl)c(Cl)c1Cl
inactive: dose: 15.0 mg/kg/injection, schedule: Q01DX009 (ip), vehicle: Klucel (hydroxypropylcellulose) (HPC) 111 % of control | dose: 30.0 mg/kg/injection, schedule: Q01DX009 (ip), vehicle: Klucel (hydroxypropylcellulose) (HPC) 108 % of control | dose: 60.0 mg/kg/injection, schedule: Q01DX009 (ip), vehicle: Klucel (hydroxypropylcellulose) (HPC) 88 % of control

O=C(C[n+]1ccc2ccccc2c1)c1ccccc1
inactive: [15] 86 % of control | [16] 86 % of control | [21] 100 % of control

CNC(C)Cc1ccccc1 (stereo not drawn)
inactive: dose: 3.75 mg/kg/injection, schedule: Q01DX009 (ip), vehicle: saline 95 % of control | dose: 15.0 mg/kg/injection, schedule: Q01DX009 (ip), vehicle: saline 95 % of control | dose: 30.0 mg/kg/injection, schedule: Q01DX009 (ip), vehicle: saline 95 % of control

Cc1ccc(Cl)cc1NC(=O)Nc1ccc(Cl)c(Cl)c1
inactive: [17] 97 % of control | [18] 92 % of control

C1CC[N-]CC1.CC(=N\O)/C(C)=N/O.CC(=N\O)/C(C)=N/O.[Co+2].[c-]1ccccc1
inactive: [19] 90 % of control | [20] 93 % of control | dose: 400.0 mg/kg/injection, schedule: Q01DX009 (ip), vehicle: Klucel (hydroxypropylcellulose) (HPC) 90 % of control
